Experimental data published in paper PMC7224568 (PLoS Pathogens, 2020).
“Also recorded” adds a separate entry of the source.

Key:
soluble P14 TCR (mouse) [1] = assay: ITC
soluble P14 TCR (mouse) [2] = assay: SPR
P14 T cells [3] = assay type: cell-based, mouse
P14 T cells [4] = assay type: cell-based, mouse; remark: listed apart in the source
H-2D^b (pMHC complex) = assay type: binding, mouse
soluble TCR P14 [5] = assay type: binding, mouse
P14 T cells [6] = assay type: cell-based, mouse; remark: listed apart in the source
soluble TCR P14 [7] = assay type: binding, mouse; remark: listed apart in the source
P14 T cells [8] = assay type: cell-based, mouse; remark: listed apart in the source
P14 T cells [9] = assay type: cell-based, mouse; remark: listed apart in the source
TCR P14 = settings: cited from earlier work
T cell clone YF.F3 = settings: cited from earlier work

| Substance | TNF and IFNγ production by LCMV-activated P14 T cells (in words) (P14 T cells [3]) | pMHC complex thermal stability (in words) (H-2D^b (pMHC complex)) | Tm (50% protein denaturation), in Fig 1A (H-2D^b (pMHC complex); pH 7.5) [°C] | thermodynamics of P14 binding (in words) (soluble TCR P14 [5]) | CD107a expression (degranulation) of P14 T cells (in words) (P14 T cells [6]) | TNF and IFNγ production by P14 T cells (in words) (P14 T cells [8]) | P14 TCR down-regulation / internalization (in words) (P14 T cells [9]) | further results |
| --- | --- | --- | --- | --- | --- | --- | --- | --- |
| H-2D^b/gp33 (from UniProt P01887 21-119) (peptide-MHC) | – | – | – | – | – | – | – | Kd (soluble P14 TCR (mouse) [1]): 5.8 µM; dH (soluble P14 TCR (mouse) [1]): -10.2 kcal/mol; Kd (soluble P14 TCR (mouse) [2]): 8.6 µM |
| KAPFNFATM [Peptide V3P_Y4F] | produced TNF and IFNγ | – | – | – | – | – | – | tetramer recognition by LCMV-activated P14 T cells (in words) (P14 T cells [4]): a significant amount of the activated P14 T cells recognized the H-2D^b/V3P_Y4F complex |
| KAPYNFATM [Peptide V3P] | – | consistent increase in pMHC complex thermal stability | 57.3 | mainly enthalpy-driven with almost null contribution of entropy; also recorded: the energy required for P14 recognition of V3P is reduced compared to gp33; also recorded: reduced unfavorable entropic contribution | induced significant production of TNF and IFNγ, as well as CD107a expression | induced significant production of TNF and IFNγ | equaled or increased TCR internalization compared to gp33 | Tm (temperature with 50% pMHC denaturation) (H-2D^b (pMHC complex); pH 7.5): 57.3±0.4 C; TΔS (soluble TCR P14 [5]; pH 7.4): -0.5 ± 0.3 kcal/mol; ΔH (soluble TCR P14 [5]; pH 7.4): -8.5 ± 0.5 kcal/mol; P14 TCR binding to pMHC (in words) (soluble TCR P14 [7]): significantly higher binding affinity of soluble P14 TCR to H-2D^b/V3P compared to H-2D^b/gp33 |
| KAVANFATM [Peptide Y4A] | – | – | – | – | – | – | – | agonist class (in words) (TCR P14): semi-agonist |
| KAVYNFATM [gp33, reference compound] | produced TNF and IFNγ | equivalent thermal stability | 53.7 | entropically unfavorable | induced significant production of TNF and IFNγ, as well as CD107a expression | induced significant production of TNF and IFNγ | induced significant TCR down-regulation | IFNγ production by clone YF.F3 (in words) (T cell clone YF.F3): did not produce high amounts IFNγ against gp33; killing of peptide-presenting targets by clone YF.F3 (in words) (T cell clone YF.F3): killed efficiently targets presenting gp33 |
